Measurements from the NIST ThermoML archive (doi:10.1021/je900722m).
Numbers after ± are expanded uncertainties.

Conditions: 101.33 kPa, Liquid

Row | mass density (303.15 K) [kg/m3] | viscosity (303.15 K) [mPa·s] | mass density (308.15 K) [kg/m3] | viscosity (308.15 K) [mPa·s] | mass density (313.15 K) [kg/m3] | viscosity (313.15 K) [mPa·s] | mass density (318.15 K) [kg/m3] | viscosity (318.15 K) [mPa·s] | mass density (323.15 K) [kg/m3] | viscosity (323.15 K) [mPa·s] | mass density (328.15 K) [kg/m3] | viscosity (328.15 K) [mPa·s] | mass density (333.15 K) [kg/m3] | viscosity (333.15 K) [mPa·s] | mass density (338.15 K) [kg/m3] | viscosity (338.15 K) [mPa·s] | mass density (343.15 K) [kg/m3] | viscosity (343.15 K) [mPa·s] | SMILES
1 | 794.064 ± 0.46 | 2.649 ± 0.045 | 790.123 ± 0.46 | 2.28 ± 0.039 | 786.12 ± 0.47 | 1.965 ± 0.034 | 782.061 ± 0.48 | 1.692 ± 0.03 | 777.932 ± 0.48 | 1.482 ± 0.026 | 773.732 ± 0.49 | 1.268 ± 0.023 | 769.448 ± 0.5 | 1.116 ± 0.02 | 765.079 ± 0.51 | 0.9851 ± 0.019 | 760.611 ± 0.51 | 0.8767 ± 0.017 | CC(C)CO [2-methyl-1-propanol]
2 |  |  | 770.365 ± 0.5 | 2.69 ± 0.046 | 765.07 ± 0.51 | 2.142 ± 0.037 | 759.675 ± 0.52 | 1.737 ± 0.03 | 754.193 ± 0.53 | 1.428 ± 0.025 | 748.621 ± 0.54 | 1.196 ± 0.022 | 742.954 ± 0.55 | 1.016 ± 0.019 | 737.19 ± 0.56 | 0.8734 ± 0.017 | 731.313 ± 0.56 | 0.7603 ± 0.016 | CC(C)(C)O [2-methylpropan-2-ol]
3 | 802.213 ± 0.44 | 2.296 ± 0.039 | 798.343 ± 0.45 | 2.025 ± 0.035 | 794.425 ± 0.45 | 1.795 ± 0.031 | 790.465 ± 0.46 | 1.595 ± 0.028 | 786.456 ± 0.47 | 1.417 ± 0.025 | 782.399 ± 0.47 | 1.271 ± 0.023 | 778.281 ± 0.48 | 1.138 ± 0.021 | 774.098 ± 0.49 | 1.028 ± 0.019 | 769.845 ± 0.49 | 0.9306 ± 0.018 | CCCCO [butan-1-ol]
4 | 798.351 ± 0.48 | 2.607 ± 0.045 | 794.052 ± 0.48 | 2.163 ± 0.037 | 789.658 ± 0.49 | 1.84 ± 0.032 | 785.159 ± 0.5 | 1.557 ± 0.028 | 780.552 ± 0.51 | 1.333 ± 0.024 | 775.832 ± 0.51 | 1.151 ± 0.021 | 770.993 ± 0.52 | 1.002 ± 0.019 | 766.038 ± 0.53 | 0.8779 ± 0.017 | 760.962 ± 0.54 | 0.7769 ± 0.016 | CCC(C)O (stereo not given) [butan-2-ol]
